Experimental data reported in ChEMBL document CHEMBL1629662, “Antimicrobial activity of prulifloxacin tested against a worldwide collection of gastroenteritis-producing pathogens, including those causing traveler's diarrhea” (2009).

Legend:
Aeromonas caviae = experiment: Antibacterial activity against Aeromonas caviae by broth microdilution methods in presence of sulfamethoxazole
Aeromonas hydrophila = experiment: Antibacterial activity against Aeromonas hydrophila by broth microdilution methods in presence of sulfamethoxazole
Escherichia coli = experiment: Antibacterial activity against Escherichia coli by broth microdilution methods in presence of sulfamethoxazolee
[1] = Antibacterial activity against Salmonella enterica serovar Newport by broth microdilution method in presence of sulfamethoxazole
Vibrio cholerae = experiment: microbe, parasite or virus in culture
Campylobacter coli = experiment: Antibacterial activity against Campylobacter coli by broth microdilution method in presence of sulfamethoxazole
Salmonella typhi = experiment: Antibacterial activity against Salmonella enterica serovar Typhi by broth microdilution method in presence of sulfamethoxazolee
Aeromonas sobria = experiment: Antibacterial activity against Aeromonas sobria by broth microdilution methods in presence of sulfamethoxazole
Vibrio alginolyticus = experiment: Antibacterial activity against Vibrio alginolyticus by broth microdilution methods in presence of sulfamethoxazole
Campylobacter jejuni = experiment: Antibacterial activity against Campylobacter jejuni by broth microdilution method in presence of sulfamethoxazole
[2] = Antibacterial activity against Salmonella enterica serovar Heidelberg by broth microdilution method in presence of sulfamethoxazole
[3] = Antibacterial activity against Salmonella enterica serovar Virchow by broth microdilution method in presence of sulfamethoxazole
Aeromonas veronii = experiment: Antibacterial activity against Aeromonas veronii by broth microdilution methods in presence of sulfamethoxazole
Shigella flexneri = experiment: Antibacterial activity against Shigella flexneri by broth microdilution method in presence of sulfamethoxazole
Shigella boydii = experiment: Antibacterial activity against Shigella boydii by broth microdilution methods in presence of sulfamethoxazole
Vibrio vulnificus = experiment: Antibacterial activity against Vibrio vulnificus by broth microdilution method in presence of sulfamethoxazole
Shigella dysenteriae = experiment: Antibacterial activity against Shigella dysenteriae by broth microdilution methods in presence of sulfamethoxazole
Salmonella enteritidis = experiment: Antibacterial activity against Salmonella enterica serovar Enteritidis by broth microdilution method in presence of sulfamethoxazolee
Salmonella typhimurium = experiment: Antibacterial activity against Salmonella enterica serovar Typhimurium by broth microdilution method in presence of sulfamethoxazolee
Plesiomonas shigelloides = experiment: Antibacterial activity against Plesiomonas shigelloides by broth microdilution method in presence of sulfamethoxazole
Vibrio fluvialis = experiment: Antibacterial activity against Vibrio fluvialis by broth microdilution method in presence of sulfamethoxazole
Vibrio sp. = experiment: Antibacterial activity against Vibrio sp. by broth microdilution method in presence of sulfamethoxazole
Vibrio parahaemolyticus = experiment: Antibacterial activity against Vibrio parahaemolyticus by broth microdilution methods in presence of sulfamethoxazole
Salmonella paratyphi = experiment: Antibacterial activity against Salmonella enterica serovar Paratyphi by broth microdilution method in presence of sulfamethoxazolee
Yersinia enterocolitica = experiment: Antibacterial activity against Yersinia enterocolitica by broth microdilution methods in presence of sulfamethoxazole
Shigella sonnei = experiment: Antibacterial activity against Shigella sonnei by broth microdilution method in presence of sulfamethoxazole
[4] = system: Yersinia pseudotuberculosis; experiment: Antibacterial activity against Yersinia pseudotuberculosis by broth microdilution methods in presence of sulfamethoxazole

COc1cc(Cc2cnc(N)nc2N)cc(OC)c1OC [TRIMETHOPRIM]
MIC50 (Aeromonas caviae): ≤ 0.5 µg/mL
MIC90 (Aeromonas caviae): 8 µg/mL
MIC50 (Aeromonas hydrophila): ≤ 0.5 µg/mL
MIC90 (Aeromonas hydrophila): 8 µg/mL
MIC50 (Escherichia coli): ≤ 0.5 µg/mL
MIC90 (Escherichia coli): > 64 µg/mL
MIC50 [1]: ≤ 0.5 µg/mL
MIC90 [1]: ≤ 0.5 µg/mL
MIC50 (Vibrio cholerae): ≤ 0.5 µg/mL
MIC90 (Vibrio cholerae): ≤ 0.5 µg/mL
MIC50 (Campylobacter coli): 2 µg/mL
MIC90 (Campylobacter coli): 8 µg/mL
MIC50 (Salmonella typhi): ≤ 0.5 µg/mL
MIC90 (Salmonella typhi): ≤ 0.5 µg/mL
MIC50 (Aeromonas sobria): ≤ 0.5 µg/mL
MIC90 (Aeromonas sobria): 8 µg/mL
MIC50 (Vibrio alginolyticus): ≤ 0.5 µg/mL
MIC90 (Vibrio alginolyticus): ≤ 0.5 µg/mL
MIC50 (Campylobacter jejuni): 2 µg/mL
MIC90 (Campylobacter jejuni): 8 µg/mL
MIC50 [2]: ≤ 0.5 µg/mL
MIC90 [2]: ≤ 0.5 µg/mL
MIC50 [3]: ≤ 0.5 µg/mL
MIC90 [3]: ≤ 0.5 µg/mL
MIC50 (Aeromonas veronii): ≤ 0.5 µg/mL
MIC90 (Aeromonas veronii): 8 µg/mL
MIC50 (Shigella flexneri): > 64 µg/mL
MIC90 (Shigella flexneri): > 64 µg/mL
MIC50 (Shigella boydii): > 64 µg/mL
MIC90 (Shigella boydii): > 64 µg/mL
MIC50 (Vibrio vulnificus): ≤ 0.5 µg/mL
MIC90 (Vibrio vulnificus): ≤ 0.5 µg/mL
MIC50 (Shigella dysenteriae): > 64 µg/mL
MIC90 (Shigella dysenteriae): > 64 µg/mL
MIC50 (Salmonella enteritidis): ≤ 0.5 µg/mL
MIC90 (Salmonella enteritidis): ≤ 0.5 µg/mL
MIC50 (Salmonella typhimurium): ≤ 0.5 µg/mL
MIC90 (Salmonella typhimurium): ≤ 0.5 µg/mL
MIC (Plesiomonas shigelloides): ≤ 0.5 µg/mL
MIC50 (Plesiomonas shigelloides): ≤ 0.5 µg/mL
MIC50 (Vibrio fluvialis): ≤ 0.5 µg/mL
MIC90 (Vibrio fluvialis): ≤ 0.5 µg/mL
MIC50 (Vibrio sp.): ≤ 0.5 µg/mL
MIC90 (Vibrio sp.): ≤ 0.5 µg/mL
MIC50 (Vibrio parahaemolyticus): ≤ 0.5 µg/mL
MIC90 (Vibrio parahaemolyticus): ≤ 0.5 µg/mL
MIC50 (Salmonella paratyphi): ≤ 0.5 µg/mL
MIC90 (Salmonella paratyphi): ≤ 0.5 µg/mL
MIC50 (Yersinia enterocolitica): ≤ 0.5 µg/mL
MIC50 (Shigella sonnei): > 64 µg/mL
MIC90 (Shigella sonnei): > 64 µg/mL
MIC50 [4]: ≤ 0.5 µg/mL
